Laboratory results as given in patent US6248712A, “Urokinase-type plasminogen activator receptor” (Cancerforskningsfondet af 1989, priority 1995, dated 2001).

How the values were obtained:
U937 cells = experiment: Fate of receptor-bound u-PA:PAI-1 complex on U937 cells; format: cell-based, human; details: 0.5 mM chloroquine
Procedure: Binding assay. […] The cells were then acid-treated in 50 mM glycine-HCl, 100 mM NaCl (pH 3) for 3 minutes at 4° C. and quickly neutralized with half a volume of 0.5 M Hepes, 100 mM NaCl (pH 7.4). […] Non-specific binding was determined in the presence of 100 nM unlabelled u-PA.
The basic experiment was carried out in two steps: first, labelled ligands were incubated with acid-washed cells at 4° C. for 90 minutes (step 1). […] In step 2, the cells were incubated at 37° C. for 3 hours in binding buffer containing no ligands. The amount and the state of the ligand were assayed by quantitation of the radioactivity (and the extent of TCA precipitability) at different times during step 2. To this end, both the radioactivity recovered in the cell-associated form and in the supernatant were measured.

plasmin [1] = target: T1, plasmin (Homo sapiens, UniProt P00747); experiment: Plasmin thioesterase assay (Z-lysine thiobenzyl ester); format: biochemical; details: tranexamic acid 1 mM
T1 sequence (P00747 581-810 limits assumed): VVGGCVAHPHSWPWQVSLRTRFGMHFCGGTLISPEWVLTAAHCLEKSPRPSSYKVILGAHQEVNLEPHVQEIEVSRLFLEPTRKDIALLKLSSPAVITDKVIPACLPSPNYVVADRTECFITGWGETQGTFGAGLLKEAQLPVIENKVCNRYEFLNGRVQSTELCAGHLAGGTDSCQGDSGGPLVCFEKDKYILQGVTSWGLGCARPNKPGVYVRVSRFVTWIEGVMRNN
T1 sequence (P00747 97-580 limits assumed): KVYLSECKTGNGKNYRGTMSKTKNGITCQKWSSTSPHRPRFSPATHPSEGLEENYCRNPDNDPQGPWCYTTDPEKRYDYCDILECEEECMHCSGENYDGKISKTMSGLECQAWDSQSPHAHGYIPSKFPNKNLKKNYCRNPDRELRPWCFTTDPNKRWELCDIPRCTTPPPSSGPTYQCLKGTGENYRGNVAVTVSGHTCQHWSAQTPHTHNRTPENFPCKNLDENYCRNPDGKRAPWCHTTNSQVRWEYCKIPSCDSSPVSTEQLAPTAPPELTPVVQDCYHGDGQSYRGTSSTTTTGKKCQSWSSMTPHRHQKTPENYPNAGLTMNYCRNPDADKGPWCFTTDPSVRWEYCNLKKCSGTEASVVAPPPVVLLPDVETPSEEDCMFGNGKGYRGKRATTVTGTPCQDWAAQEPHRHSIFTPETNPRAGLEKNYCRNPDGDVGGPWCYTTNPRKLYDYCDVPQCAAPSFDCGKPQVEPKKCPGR

plasmin [2] = target: T1, plasmin; experiment: Plasmin-catalysed activation of pro-u-PA in solution; format: biochemical; details: tranexamic acid 100 μM; unpublished results
HT-1080 cells [3] = experiment: u-PA activity in medium of HT-1080 cultures (immunocapture assay); format: cell-based; details: Homo sapiens, control = 100%; for activity at 10 µM: TA 10 μM with Plg 40 μg/ml; for activity at 100 µM: TA 100 μM with Plg 40 μg/ml
Procedure: S. et al., "Enzyme-linked immunosorbent assay for human urokinase-type plasminogen activators and its proenzyme using a combination of monoclonal and polyclonal antibodies", J. […] S. et al., "Monoclonal antibodies to human 54,000 molecular weight plasminogen activator inhibitor from fibrosarcoma cells--inhibitor neutralization and one-step affinity purification", Thromb. […] The coating solution contained 2.5 μg of IgG per ml of 0.1 M sodium carbonate (pH 9.8). After rinsing, the wells were treated with conditioned medium ([…]) for 2 hours at 23° C., then rinsed again. […] The other half (controls) received 50 μl of rinsing buffer (0.05% Tween 20 in PBS). […] The cultures were incubated for the times shown before assay of cell-bound plasmin.

HT-1080 cells [4] = experiment: Pro-u-PA index of cell-bound u-PA on HT-1080 cells in serum medium; format: cell-based, human; details: TA 100 μM with Plg 40 μg/ml and anti-PAI-1 antibody 10 μg/ml, 2 h at 37° C.
Procedure: Cell culture supernatants were assayed for pro-u-PA and active u-PA by the following modification of an immunocapture method (Stephens et al., 1988; Stephens et al., 1987). Microtitre wells of polystyrene immunoplates (type 269620, A/S Nunc, Roskilde, Denmark) were coated overnight at 37° C. with 50 μl of a solution of goat IgG antibodies to human u-PA (cat. # 398, American Diagnostica). The coating solution contained 2.5 μg of IgG per ml of 0.1 M sodium carbonate (pH 9.8). After rinsing, the wells were treated with conditioned medium ([…]) for 2 hours at 23° C., then rinsed again. […] This mixture was incubated for 30 minutes at 37° C., and the absorbancies of the wells were read at 405 nm. […]
Pro-u-PA and active u-PA bound to the cell layer were recovered for immunocapture assays by the same method as was used in the metabolic labelling (see above). […] For conditioned medium and cell-bound u-PA, the u-PA activity assayed after NPGB treatment was expressed as a percentage of the total activity obtained without NPGB treatment, and this percentage used as an index of pro-u-PA content (pro-u-PA index). […]

HT-1080 cells [5] = experiment: Formation of bound plasmin on HT-1080 cells in serum culture; format: cell-based, human; details: for Bound plasmin activity (%): 10% serum medium, Plg alone = 100%
HT-1080 cells [6] = experiment: Plasmin binding to and release from HT-1080 cells; format: cell-based, human
Procedure: Plasmin release from HT-1080 cells into serum-free and serum-containing media. Confluent layers of HT-1080 cells were first loaded with plasmin by incubation for 1 hour at 37° C. in serum-free MEM medium (0.5 ml) containing human plasmin (0-5 μg/ml). After rinsing the cell layers three times, they were incubated for 2 hours at 37° C. with either serum-free medium (.smallcircle.--.smallcircle.), medium containing 10% heat-inactivated and plasminogen-depleted fetal calf serum (.circle-solid.--.circle-solid.), or the latter with tranexamic acid (100 μM) (.box-solid.--.box-solid.). Plasmin was then assayed in the cell-bound fraction (A) and the media (B).
In the Examples concerning plasmin binding to cells from medium, human plasmin (approximately 18 CU/mg; Kabi Diagnostica, Stockholm, Sweden) was added to the cultures at final concentrations of 0-5 μg/ml. The cells were incubated for 3 hours at 37° C. before assay of cell-bound and supernatant plasmin (see below). For plasmin release experiments, cells were loaded for 1 hour at 37° C. with 0-5 μg/ml plasmin in serum-free medium, then rinsed three times with MEM.
Plasmin bound to the cell layer was recovered and assayed as follows. […] Plasmin activity was assayed in eluate samples (50 μl) as above with an incubation time of 3 hours at 37° C.

Compound | Ability of the u-PA:PAI-1 complex to bind to the U937 cells (U937 cells) | Effect on the thioesterase activity of plasmin (plasmin [1]) | Ability of plasmin to activate pro-u-PA in solution (plasmin [2]) | activity at 10 µM (HT-1080 cells [3]; 3 h) | activity at 10 µM (HT-1080 cells [3]; 17 h) | activity at 100 µM (HT-1080 cells [3]; 3 h) | activity at 100 µM (HT-1080 cells [3]; 17 h) | Pro-u-PA index (%) (HT-1080 cells [4]) | Bound plasmin activity (%) (HT-1080 cells [5]; TA 10 μM with Plg 40 μg/ml, 3 h) | Bound plasmin activity (%) (HT-1080 cells [5]; TA 10 μM with Plg 40 μg/ml, 17 h) | Bound plasmin activity (HT-1080 cells [5]; TA 100 μM with Plg 40 μg/ml and anti-PAI-1 antibody 10 μg/ml, 2 h at 37° C.) | Bound plasmin activity (%) (HT-1080 cells [5]; TA 100 μM with Plg 40 μg/ml, 3 h) | Bound plasmin activity (%) (HT-1080 cells [5]; TA 100 μM with Plg 40 μg/ml, 17 h) | Plasmin activity recovered from plasmin-loaded cells (HT-1080 cells [6]; 1 mM tranexamic acid in 10% serum medium, 2 h at 37° C.) | Binding of plasmin to the cells (HT-1080 cells [6]; tranexamic acid 100 μM)
CCN(CC)CCCC(C)Nc1ccnc2cc(Cl)ccc12 (stereo not drawn) [chloroquine] | does not affect |  |  |  |  |  |  |  |  |  |  |  |  |  | 
NC[C@H]1CC[C@H](C(=O)O)CC1 [tranexamic acid] |  | no effect | does not affect | 116% | 87% | 92% | 95% | 88% | 9.7% | 34% | 0 ng | 2.2% | 13% | no plasmin activity could be recovered | completely inhibits
